Laboratory results from patent US10000555B2, “Monomethylvaline compounds having phenylalanine side-chain modification at the C-terminus” (Seattle Genetics, Inc., priority 2005, dated 2018).

Assays:
Type in all cases: cell-based
U251 = experiment: In vitro cytotoxicity of h1F6-MC-val-cit-PAB-MMAZ conjugates on CD70+ cell line U251; settings: U251 glioblastoma, approximately 4 drugs per antibody
Procedure: (§1) The cytotoxic activity of MMAZ and antibody-drug conjugates is evaluated on the CD70+ positive cell lines, for example, Caki-1, renal cell carcinoma; L428, Hodgkin's disease; U251, glioblastoma. To evaluate the cytotoxicity of compounds, cells can be seeded at approximately 5-10,000 per well in 150 μl of culture medium, then treated with graded doses of compounds in quadruplicates at the initiation of assay. Cytotoxicity assays are usually carried out for 96 hours after addition of test compounds. Fifty μl of resazurin dye may be added to each well during the last 4 to 6 hours of the incubation to assess viable cells at the end of culture. Dye reduction can be determined by fluorescence spectrometry using the excitation and emission wavelengths of 535 nm and 590 nm, respectively. For analysis, the extent of resazurin reduction by the treated cells can be compared to that of the untreated control cells.
(§2) To evaluate the cytotoxicity of conjugates, cells are seeded at approximately 5-10,000 per well in 150 μl of culture medium and then treated with graded doses of conjugates in quadruplicates at the initiation of assay. Cytotoxicity assays are carried out for 96 hours after addition of test compounds. Fifty μl of the resazurin dye is added to each well during the last 4 to 6 hours of the incubation to assess viable cells at the end of culture. Dye reduction is determined by fluorescence spectrometry using the excitation and emission wavelengths of 535 nm and 590 nm, respectively. For analysis, the extent of resazurin reduction by the treated cells is compared to that of the untreated control cells.

L428 = experiment: In vitro cytotoxicity of h1F6-MC-val-cit-PAB-MMAZ conjugates on CD70+ cell line L428; settings: for IC50 (ng/mL) of h1F6-MC-val-cit-PAB-MMAZ conjugates on CD70+ cell lines, L428: L428 Hodgkin's disease, approximately 4 drugs per antibody
Procedure: as §1, §2

Caki-1 = experiment: In vitro cytotoxicity of h1F6-MC-val-cit-PAB-MMAZ conjugates on CD70+ cell line Caki-1; settings: Caki-1 renal cell carcinoma, approximately 4 drugs per antibody
Procedure: as §1, §2

With “Maleimidocaproyl-Val-Cit-PAB-MeVal-Val-Dil-Dap-2-Chloro-Phe-OH [SP3-a]” the “IC50 (ng/mL) of h1F6-MC-val-cit-PAB-MMAZ conjugates on CD70+ cell lines, U251” value (“IC50 (ng/mL) … U251” below) (U251) was 8 ng/mL, the “IC50 (ng/mL) of h1F6-MC-val-cit-PAB-MMAZ conjugates on CD70+ cell lines, L428” value (“IC50 (ng/mL) … L428” for short) (L428) was 8 ng/mL and the “IC50 (ng/mL) of h1F6-MC-val-cit-PAB-MMAZ conjugates on CD70+ cell lines, Caki-1” value (shortened to “IC50 (ng/mL) … Caki-1”) (Caki-1) was 4.4 ng/mL.
In the case of “Maleimidocaproyl-Val-Cit-PAB-MeVal-Val-Dil-Dap-3-(3-pyridyl)-L-Ala-OH [SP3-h]”, the “IC50 (ng/mL) … U251” value (U251) is reported as 16 ng/mL, the “IC50 (ng/mL) … L428” value (L428) is reported as 12 ng/mL and the “IC50 (ng/mL) … Caki-1” value (Caki-1) is reported as 16 ng/mL.
In the case of “Maleimidocaproyl-Val-Cit-PAB-MeVal-Val-Dil-Dap-Glu(OtBu)-OH [SP3-l]”, the “IC50 (ng/mL) … U251” value (U251) is reported as 43 ng/mL, the “Maximum inhibition, L428” value (L428; @ 141 ng/ml) is reported as “Maximum inhibition = 12% @ 141 ng/ml” and the “IC50 (ng/mL) … Caki-1” value (Caki-1) is reported as 51 ng/mL.
For “Maleimidocaproyl-Val-Cit-PAB-MeVal-Val-Dil-Dap-L-β-homophe-OH [SP3-d]”, the “IC50 (ng/mL) … U251” value (U251) was 11 ng/mL, the “IC50 (ng/mL) … L428” value (L428) was 33 ng/mL and the “IC50 (ng/mL) … Caki-1” value (Caki-1) was 9 ng/mL.
With “Maleimidocaproyl-Val-Cit-PAB-MeVal-Val-Dil-Dap-Met-OH [SP3-j]” the “IC50 (ng/mL) … U251” value (U251) was 23 ng/mL, the “IC50 (ng/mL) … L428” value (L428) was 43 ng/mL and the “IC50 (ng/mL) … Caki-1” value (Caki-1) was 18 ng/mL.
“Maleimidocaproyl-Val-Cit-PAB-MeVal-Val-Dil-Dap-Tic-OH [SP3-c]” was tested, and the “IC50 (ng/mL) … U251” value (U251) was 20 ng/mL, the “Maximum inhibition, L428” value (L428; @ 1000 ng/ml) was “Maximum inhibition = 12% @ 1000 ng/ml” and the “IC50 (ng/mL) … Caki-1” value (Caki-1) was 28 ng/mL.
“Maleimidocaproyl-Val-Cit-PAB-MeVal-Val-Dil-Dap-Trp(Boc)-OH [SP3-k]” was tested, and the “IC50 (ng/mL) … U251” value (U251) was 7.5 ng/mL, the “IC50 (ng/mL) … L428” value (L428) was 11 ng/mL and the “IC50 (ng/mL) … Caki-1” value (Caki-1) was 6 ng/mL.
With “Maleimidocaproyl-Val-Cit-PAB-MeVal-Val-Dil-Dap-p-Amino-Phe-OH [SP3-e]” the “IC50 (ng/mL) … U251” value (U251) was “No effect”, the “Maximum inhibition, L428” value (L428; @ 100 ng/ml) was “Maximum inhibition = 10% @ 100 ng/ml” and the “IC50 (ng/mL) … Caki-1” value (Caki-1) was “No effect”.
With “Maleimidocaproyl-Val-Cit-PAS-MeVal-Val-Dil-Dap-Me-Phe-OH [SP3-b]” the “IC50 (ng/mL) … U251” value (U251) was 8 ng/mL, the “IC50 (ng/mL) … L428” value (L428) was 6 ng/mL and the “IC50 (ng/mL) … Caki-1” value (Caki-1) was 6 ng/mL.
